For orientation: Tmax means the time at which the peak concentration occurs.

Five molecules from US10919890B2, “Salts and pharmaceutical compositions thereof for the treatment of inflammatory disorders” (GALAPAGOS NV, priority 2014, dated 2021) can be followed below.

A short description of data set [1]: Complementary salt analysis (stability, hygroscopicity). The class given is physicochemical. Conditions: for Hygroscopicity: salt from Protocol 4; for Salt stability: stability evaluation 1 week at 40° C./75% Relative humidity.
Data set [2] can be described thus: Dog bioavailability study. Also noted: species or system beagle dogs. Conditions: in vivo, po, 25 mg/kg. The protocol:
The dogs are not fasted before dosing, and have free access to water. Every day of the treatment, a half food ration is provided after the T0 blood sampling, 8 to 17 min before treatment, and the second half ration is given just after dosing or 1 h after treatment for period 2. A 3 days washout period is ensured between treatments. […] The capsule composition is described in Table XX below. The capsules are administered orally with water (5-10 mL), to provide good oesophageal transit. Each animal is checked at least once daily. Blood is collected from the jugular vein into lithium heparinised tubes at T0 (before food administration) and then at 1 […], and 24 h post treatment. Plasma is then obtained from blood by centrifugation (2500 g for 10 min at 4° C.), and stored at -20° C. until analysis. […] After vortex mixing and centrifugation at 4° C., the supernatants are diluted with a 0.5 volume of HPLC grade water in a midi-eppendorf 96-well plate. The plate is sealed and shaken to ensure sample homogeneity prior to analysis. […] Pharmacokinetic analysis is performed using WinNonlinTM software version 5.3, using concentrations from individual animals. Non-compartmental analysis is applied to determine the PK parameters (Cmax, Tmax, AUC0-last, t1/2, etc. . . . ) Concentrations below the limit of detection are set to zero for descriptive statistics and PK parameter calculations.

Data set [3] is described as follows: Dissolution in solvents (salt Protocol 1). The class given is physicochemical. The conditions noted are these: DCM, up to 20 relative volumes, agitated at 50° C. The source says:
The solvent is selected from isopropanol, ethanol, methanol, isopropyl acetate, THF, TBME, acetone, methyl ethyl ketone, DCM, and MeCN.

Where a name gives a salt, the structure may show the parent alone.

For the molecule `Cl.O=C(Nc1nc2cccc(-c3ccc(CN4CCS(=O)(=O)CC4)cc3)n2n1)C1CC1` [Compound 1 HCl salt], in data set [1], the Hygroscopicity result is recorded as “non-hygroscopic” and the Salt stability result is “stable”.

With `Cl.O.O.O.O=C(Nc1nc2cccc(-c3ccc(CN4CCS(=O)(=O)CC4)cc3)n2n1)C1CC1` [Compound 1.HCl.3H2O], the Tmax in data set [2] came to 2.0 h.

In the case of `O=C(Nc1nc2cccc(-c3ccc(CN4CCS(=O)(=O)CC4)cc3)n2n1)C1CC1` [Compound 1, cyclopropane carboxylic acid {5-[4-(1,1-dioxo-thiomorpholin-4-ylmethyl)-phenyl]-[1,2,4]triazolo[1,5-a]pyridin-2-yl}-amide], in data set [3], the Dissolution in solvent entry is reported as “almost full dissolution”.

As to `O=C(O)/C=C\C(=O)O` [Compound 1 maleic acid salt], in data set [1], the Hygroscopicity entry was “non-hygroscopic”.

For `O=C(Nc1nc2cccc(-c3ccc(CN4CCS(=O)(=O)CC4)cc3)n2n1)C1CC1.O=C(O)/C=C\C(=O)O` [Compound 1 maleic acid salt], in data set [1], the Salt stability entry is “stable”.
